Assay results taken from ChEMBL document CHEMBL4627252, “Synthesis and biological evaluation of bis-N2,N2'-(4-hydroxycoumarin-3-yl)ethylidene]-2,3-dihydroxysuccinodihydrazides” (Bioorg Med Chem Lett, 2020).
In brackets after ≈: the same amount, converted by molar mass.

Columns and labels:
[1] = test system: Plasmodium falciparum; assay: Antimalarial activity against Plasmodium falciparum 3D7 infected in human erythrocytes assessed as parasite viability at 20 uM incubated for 48 hrs by parasite LDH release based colorimetric assay relative to control; format: functional
[2] = Cytotoxicity against human HeLa cells assessed as cell viability at 20 uM incubated for 24 hrs by resazurin dye base fluorescence analysis relative to control; format: cell-based; conditions: read-out: Activity
[3] = test system: Mycobacterium tuberculosis; assay: Antimycobacterial activity against Mycobacterium tuberculosis H37Rv assessed as inhibition of bacterial growth by measuring calculated MIC90 measured after 14 days by green fluorescent protein based microplate assay; format: functional; conditions: 336 h
[4] = molecular target: Human immunodeficiency virus type 1 protease (Human immunodeficiency virus 1) (UniProt Q72874); assay: Inhibition of HIV-1 protease at 20 uM relative to control
[5] = molecular target: Human immunodeficiency virus type 1 integrase (Human immunodeficiency virus 1, UniProt Q7ZJM1); assay: Inhibition of HIV-1 integrase
[6] = test system: Mycobacterium tuberculosis; assay: Antimycobacterial activity against Mycobacterium tuberculosis H37Rv assessed as inhibition of bacterial growth by measuring visual MIC90 measured after 14 days by green fluorescent protein based microplate assay; format: functional; conditions: 336 h
[7] = test system: Trypanosoma brucei brucei; assay: Antitrypanosomal activity against Trypanosoma brucei brucei assessed as parasite viability at 20 uM relative to control; format: functional
[8] = test system: HeLa; assay: Cytotoxicity against human HeLa cells assessed as inhibition of cell viability incubated for 24 hrs by resazurin dye based fluorescence analysis
[9] = test system: Trypanosoma brucei brucei; assay: Antitrypanosomal activity against Trypanosoma brucei brucei assessed as inhibition of parasite viability; format: functional, organism-based

Human immunodeficiency virus type 1 integrase, sequence (Q7ZJM1 whole entry): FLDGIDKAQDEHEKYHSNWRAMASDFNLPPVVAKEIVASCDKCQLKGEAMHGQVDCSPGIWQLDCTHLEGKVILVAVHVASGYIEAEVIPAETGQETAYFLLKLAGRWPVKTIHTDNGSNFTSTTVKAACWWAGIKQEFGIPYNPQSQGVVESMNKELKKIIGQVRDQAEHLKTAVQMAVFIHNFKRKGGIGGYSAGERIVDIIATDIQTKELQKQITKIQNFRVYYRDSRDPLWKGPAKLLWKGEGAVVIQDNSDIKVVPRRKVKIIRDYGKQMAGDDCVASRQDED

## C/C(=N\NC(=O)C(O)C(O)C(=O)N/N=C(\C)c1c(O)c2ccccc2oc1=O)c1c(O)c2ccccc2oc1=O (racemic)
[1]
  Activity: 90.7%
[2]
  viability at 24 h, 20 µM: 78.4%
[3]
  MIC90: > 125 µM
[4]
  inhibition: 0%
[5]
  IC50: 3500 nM
[6]
  MIC90: > 125 µM
[7]
  Activity: 42.7%

## C/C(=N\NC(=O)C(O)C(O)C(=O)N/N=C(\C)c1c(O)c2cc(Cl)ccc2oc1=O)c1c(O)c2cc(Cl)ccc2oc1=O (racemic)
[1]
  Activity: 93.8%
[2]
  viability at 24 h, 20 µM: 100%
[3]
  MIC90: 54.2 µM (≈ 33.6 µg/mL)
[4]
  inhibition: 0%
[6]
  MIC90: 31.2 µM (≈ 19.4 µg/mL)
[7]
  Activity: 44.6%

## C/C(=N\NC(=O)C(O)C(O)C(=O)N/N=C(\C)c1c(O)c2cc(Br)ccc2oc1=O)c1c(O)c2cc(Br)ccc2oc1=O (racemic)
[1]
  Activity: 100%
[2]
  viability at 24 h, 20 µM: 100%
[3]
  MIC90: 18.9 µM (≈ 13.4 µg/mL)
[4]
  inhibition: 0%
[6]
  MIC90: 15.6 µM (≈ 11.1 µg/mL)
[7]
  Activity: 100%

## C/C(=N\NC(=O)C(O)C(O)C(=O)N/N=C(\C)c1c(O)c2c(ccc3ccccc32)oc1=O)c1c(O)c2c(ccc3ccccc32)oc1=O (racemic)
[1]
  Activity: 100%
[2]
  viability at 24 h, 20 µM: 98.1%
[3]
  MIC90: 29.5 µM (≈ 19.2 µg/mL)
[4]
  inhibition: 0%
[6]
  MIC90: 31.2 µM (≈ 20.3 µg/mL)
[7]
  Activity: 100%

## CC[C@H]1CN2CCc3cc(OC)c(OC)cc3[C@@H]2C[C@@H]1C[C@H]1NCCc2cc(OC)c(OC)cc21 [EMETINE]
[8]
  IC50: 13 nM

## N=C(N)c1ccc(OCCCCCOc2ccc(C(=N)N)cc2)cc1 [PENTAMIDINE]
[9]
  IC50: 39 nM

## CO[C@H]1/C=C/O[C@@]2(C)Oc3c(C)c(O)c4c(O)c(c(/C=N/N5CCN(C)CC5)c(O)c4c3C2=O)NC(=O)/C(C)=C\C=C\[C@H](C)[C@H](O)[C@@H](C)[C@@H](O)[C@@H](C)[C@H](OC(C)=O)[C@@H]1C [RIFAMPIN]
[3]
  MIC90: 0.007 µM (≈ 0.00576 µg/mL)
[6]
  MIC90: 0.019 µM (≈ 0.0156 µg/mL)

## COc1ccc2oc(=O)c(/C(C)=N/NC(=O)C(O)C(O)C(=O)N/N=C(\C)c3c(O)c4cc(OC)ccc4oc3=O)c(O)c2c1 (racemic)
[1]
  Activity: 100%
[2]
  viability at 24 h, 20 µM: 84.6%
[3]
  MIC90: > 125 µM
[4]
  inhibition: 0%
[6]
  MIC90: > 125 µM
[7]
  Activity: 100%

## C/C(=N\NC(=O)C(O)C(O)C(=O)N/N=C(\C)c1c(O)c2cc(C)ccc2oc1=O)c1c(O)c2cc(C)ccc2oc1=O (racemic)
[1]
  Activity: 100%
[2]
  viability at 24 h, 20 µM: 85.3%
[3]
  MIC90: > 125 µM
[4]
  inhibition: 8.3%
[6]
  MIC90: > 125 µM
[7]
  Activity: 100%

## C/C(=N\NC(=O)C(O)C(O)C(=O)N/N=C(\C)c1c(O)c2cc(F)ccc2oc1=O)c1c(O)c2cc(F)ccc2oc1=O (racemic)
[1]
  Activity: 92.8%
[2]
  viability at 24 h, 20 µM: 84.6%
[3]
  MIC90: > 125 µM
[4]
  inhibition: 0%
[6]
  MIC90: > 125 µM
[7]
  Activity: 32.8%
